The values below come from ChEMBL document CHEMBL4130392, “Eugenol derived immunomodulatory molecules against visceral leishmaniasis” (Eur J Med Chem, 2017).

Each structure is given as a SMILES string.

Data set [1] in a line: Drug uptake in mouse RAW264.7 cells assessed as ratio of drug level (cell lysate)/(drug level (supernatant) + drug level (cell lysate) at 10 ug/ml incubated for 3 hrs by HPLC method. The format is ADME, cell-based. As to conditions: raw264.7, 3 h.
The subject of data set [2] is Leishmania donovani. Put plainly: Antileishmanial activity against Leishmania donovani MHOM/IN/AG/83 promastigotes after 48 hrs by MTT assay. The format is functional, organism-based. The following applies: MHOM/IN/AG/83, 48 h.
In data set [3] the test system is RAW264.7. Briefly: Cytotoxicity against mouse RAW264.7 cells after 48 hrs by MTT assay. As to conditions: RAW264.7, 48 h. Format: cell-based. A general note: Formazan colour is commonly taken as a measure of viable cells.
The subject of data set [4] is Peritoneal macrophage. Briefly: Induction of NO generation in Leishmania donovani MHOM/IN/AG/83 infected BALB/c mouse peritoneal macrophages assessed as nitrite levels after 48 hrs by Griess assay relative to untreated control. Format: functional. On the technique in general: Griess reagent forms a coloured azo dye with nitrite.
The nature of data set [5]: Drug uptake in mouse RAW264.7 cells assessed as retention time at 10 ug/ml incubated for 3 hrs by HPLC method. Format: ADME, cell-based. As to conditions: raw264.7, 3 h.
A short description of data set [6]: Therapeutic index, ratio of EC50 for BALB/c mouse peritoneal macrophages to EC50 for Leishmania donovani MHOM/IN/AG/83 amastigotes. Format: toxicity. The following applies: read-out: Ratio EC50.
Data set [7] is described as follows: Therapeutic index, ratio of IC50 for mouse RAW264.7 cells to IC50 for Leishmania donovani MHOM/IN/AG/83 promastigotes. As to conditions: read-out: Ratio IC50. Format: toxicity.
The subject of data set [8] is Peritoneal macrophage. Put plainly: Cytotoxicity against BALB/c mouse peritoneal macrophages after 48 hrs by MTT assay. Format: cell-based.
In data set [9] the test system is Leishmania donovani. Briefly: Antileishmanial activity against Leishmania donovani MHOM/IN/AG/83 amastigotes infected in BALB/c mouse peritoneal macrophages after 42 hrs by Giemsa staining-based microscopic analysis. The format is functional, organism-based. The following applies: MHOM/IN/AG/83, 42 h.

Turning to `C=CCc1ccc(OC(=O)COc2ccccc2)c(OC)c1`, in data set [1], the Ratio is listed as 0.73. Further, the IC50 (usually the point on the concentration scale where inhibition reaches its midpoint) in [2] came to 28.9 µM; in data set [3], 396 µM. Moreover, the Activity entry in data set [4] was “Dose-dependent effect”; in [4] (record 2), 39.02 µM. Also, the Retention_time in data set [5] was determined as 3.867 min. The values for the selectivity ratio in [6] and in [7] were 55.1 and 13.7, respectively. The results for the EC50 in data set [8] and in data set [9] were 391 µM and 7.17 µM, respectively.

With `C=CCc1ccc(OC(=O)Cc2ccccc2)c(OC)c1`, the IC50 in [2] was determined as 33.4 µM; in data set [3] it was 391 µM. For the same compound, the figures for the Activity entry in data set [4] and in [4] (record 2) were “Dose-dependent effect” and 36.45 µM, respectively. Also, the selectivity ratio in [6] is 41.8; in data set [7], 11.8. Also, the concentration giving a half-maximal response (EC50) (usually the concentration giving half of the maximal effect) in data set [8] amounted to 385 µM; in data set [9], 9.28 µM.

As for `C=CCc1ccc(OC(=O)c2ccccc2Cl)c(OC)c1`, the IC50 in data set [2] turned out to be 64.5 µM; in data set [3], 251 µM. The Activity result is “Dose-dependent effect” in data set [4] and 14.58 µM in data set [4] (record 2). Moreover, the selectivity ratio was 4.79 in data set [6] and 3.91 in data set [7]. Moreover, the EC50 in data set [8] worked out at 275 µM; in data set [9] it was 57.9 µM.

Take `C[C@@H]1[C@H](O)[C@@H](C)/C=C/C=C/C=C/C=C/C=C/C=C/C=C/[C@H](O[C@@H]2O[C@H](C)[C@@H](O)[C@H](N)[C@@H]2O)C[C@@H]2O[C@](O)(C[C@@H](O)C[C@@H](O)[C@H](O)CC[C@@H](O)C[C@@H](O)CC(=O)O[C@H]1C)C[C@H](O)[C@H]2C(=O)O` [AMPHOTERICIN B]: the IC50 in [2] was found to be 1.36 µM; in data set [3] it was 10 µM. Also, the Activity result in [4] was “Dose-dependent effect”. For the same compound, the values for the selectivity ratio in data set [6] and in [7] were 7.78 and 7.4, respectively. Further, the EC50 in data set [8] came to 9.18 µM; in data set [9], 1.18 µM.

Regarding `C=CCc1ccc(OC(=O)c2cccc([N+](=O)[O-])c2)c(OC)c1`, the half-inhibitory concentration (IC50) in data set [2] turned out to be 76.9 µM; in data set [3] it was 255 µM. Further, the values for the Activity entry in data set [4] and in data set [4] (record 2) were “Dose-dependent effect” and 24.58 µM, respectively. The figures for the selectivity ratio in data set [6] and in data set [7] were 8.36 and 3.33, respectively. Further, the EC50 in data set [8] came out at 218 µM; in data set [9], 26.2 µM.

In the case of `C=CCc1ccc(OCCCC)c(OC)c1` [N-BUTYLEUGENOL], the IC50 in [2] was determined as 309 µM; in [3], 329 µM. In addition, the Activity result in [4] is “Dose-dependent effect”; in [4] (record 2), 14.23 µM. Also, the figures for the selectivity ratio in data set [6] and in [7] were 2.35 and 1.07, respectively. Moreover, the concentration for a half-maximal effect (EC50) in data set [8] stood at 345 µM; in data set [9], 147 µM.

For the compound `C=CCc1ccc(OC(=O)CCCCCCCC)c(OC)c1`, the 50% inhibitory concentration (IC50) in [2] came out at 93.6 µM; in data set [3] it was 317 µM. The Activity result in data set [4] was “Dose-dependent effect”; in data set [4] (record 2), 27.14 µM. For the same compound, the selectivity ratio in [6] worked out at 6.52; in data set [7], 3.37. For the same compound, the results for the EC50 in data set [8] and in [9] were 343 µM and 52.9 µM, respectively.

With `C=CCc1ccc(OC(=O)CCCCCCC)c(OC)c1`, the IC50 in data set [2] worked out at 68.3 µM; in [3] it was 580 µM. Further, the Activity result is “Dose-dependent effect” in data set [4] and 24.23 µM in [4] (record 2). Also, the selectivity ratio in data set [6] was 11; in [7] it was 8.95. Moreover, the EC50 in data set [8] was determined as 565 µM; in data set [9] it was 53.3 µM.

Consider `C=CCc1ccc(OCCCCCCCC)c(OC)c1`, for which the values for the IC50 in [2] and in data set [3] were 62.3 µM and 357 µM, respectively. Besides, the Activity result is “Dose-dependent effect” in data set [4] and 26.01 µM in [4] (record 2). Besides, the selectivity ratio in data set [6] worked out at 8.3; in [7] it was 5.85. Besides, the EC50 in data set [8] worked out at 393 µM; in data set [9], 48.7 µM.

As for `C=CCc1ccc(O)c(OC)c1` [EUGENOL], in data set [1], the Ratio is given as 0.21. Besides, the IC50 was found to be 442 µM in [2] and 527 µM in data set [3]. Also, the Activity result in [4] was “Dose-dependent effect”; in data set [4] (record 2) it was 7.45 µM. In data set [5], the Retention_time was 3.133 min. Further, the selectivity ratio in data set [6] turned out to be 2.75; in data set [7] it was 1.19. The EC50 in [8] came out at 476 µM; in [9], 173 µM.

Regarding `C=CCc1ccc(OCCCCCC)c(OC)c1`, the IC50 in data set [2] worked out at 80.3 µM; in [3], 292 µM. Besides, the Activity entry in data set [4] is “Dose-dependent effect”; in data set [4] (record 2), 20.81 µM. Moreover, the selectivity ratio came to 7.6 in [6] and 3.63 in [7]. For the same compound, the EC50 in data set [8] came out at 272 µM; in [9], 36.4 µM.

For the compound `C=CCc1ccc(OC(=O)[C@@H](N)Cc2c[nH]c3ccccc23)c(OC)c1`, the IC50 in [2] came to 53 µM; in data set [3], 451 µM. Besides, the Activity result in data set [4] was “Dose-dependent effect”; in data set [4] (record 2), 28.78 µM. The values for the selectivity ratio in data set [6] and in [7] were 22.1 and 8.6, respectively. In addition, the values for the EC50 in data set [8] and in data set [9] were 471 µM and 21.6 µM, respectively.

For the compound `C=CCc1ccc(OC(=O)CCCCCC)c(OC)c1`, the values for the half-inhibitory concentration (IC50) in data set [2] and in data set [3] were 103 µM and 512 µM, respectively. For the same compound, the Activity entry in data set [4] is “Dose-dependent effect”; in [4] (record 2), 25.84 µM. For the same compound, the selectivity ratio worked out at 8.3 in [6] and 4.95 in data set [7]. In addition, the EC50 in data set [8] came out at 491 µM; in data set [9], 59.6 µM.

In the case of `C=CCOc1ccc(CC=C)cc1OC` [ALLYLEUGENOL], the IC50 was determined as 238 µM in data set [2] and 385 µM in data set [3]. The Activity entry in [4] is “Dose-dependent effect”; in data set [4] (record 2) it was 13.86 µM. Further, the values for the selectivity ratio in data set [6] and in [7] were 2.95 and 1.64, respectively. Further, the EC50 in data set [8] was determined as 353 µM; in data set [9] it was 120 µM.
